Results: PMC7592081, “Single-Atom Nanozymes Linked Immunosorbent Assay for Sensitive Detection of Aβ 1-40: A Biomarker of Alzheimer's Disease” (Research, 2020)

Tested on: T1, horseradish peroxidase (HRP)
T1 construct: gene PRXC1A; natural HRP
Assay: steady-state kinetics, Michaelis-Menten fit, absorbance of oxidised TMB ([…] nm)
Type: biochemical, Armoracia rusticana
Details: co-substrate H2O2; acetate buffer pH 3.6 (printed for the nanozyme assay)

Cc1cc(-c2cc(C)c(N)c(C)c2)cc(C)c1N [3,3′,5,5′-tetramethylbenzidine]
Km: 427 µM
